Where a SMILES comes first, the peptide text is derived from it.
Key:
JAK3(h) = molecular target: T1, JAK3(h) (Homo sapiens, UniProt P52333); test: Kinase Profiling Assay; assay type: biochemical; settings: 100 μM peptide
T1 construct: purchased Millipore
T1 sequence (P52333 1-1124): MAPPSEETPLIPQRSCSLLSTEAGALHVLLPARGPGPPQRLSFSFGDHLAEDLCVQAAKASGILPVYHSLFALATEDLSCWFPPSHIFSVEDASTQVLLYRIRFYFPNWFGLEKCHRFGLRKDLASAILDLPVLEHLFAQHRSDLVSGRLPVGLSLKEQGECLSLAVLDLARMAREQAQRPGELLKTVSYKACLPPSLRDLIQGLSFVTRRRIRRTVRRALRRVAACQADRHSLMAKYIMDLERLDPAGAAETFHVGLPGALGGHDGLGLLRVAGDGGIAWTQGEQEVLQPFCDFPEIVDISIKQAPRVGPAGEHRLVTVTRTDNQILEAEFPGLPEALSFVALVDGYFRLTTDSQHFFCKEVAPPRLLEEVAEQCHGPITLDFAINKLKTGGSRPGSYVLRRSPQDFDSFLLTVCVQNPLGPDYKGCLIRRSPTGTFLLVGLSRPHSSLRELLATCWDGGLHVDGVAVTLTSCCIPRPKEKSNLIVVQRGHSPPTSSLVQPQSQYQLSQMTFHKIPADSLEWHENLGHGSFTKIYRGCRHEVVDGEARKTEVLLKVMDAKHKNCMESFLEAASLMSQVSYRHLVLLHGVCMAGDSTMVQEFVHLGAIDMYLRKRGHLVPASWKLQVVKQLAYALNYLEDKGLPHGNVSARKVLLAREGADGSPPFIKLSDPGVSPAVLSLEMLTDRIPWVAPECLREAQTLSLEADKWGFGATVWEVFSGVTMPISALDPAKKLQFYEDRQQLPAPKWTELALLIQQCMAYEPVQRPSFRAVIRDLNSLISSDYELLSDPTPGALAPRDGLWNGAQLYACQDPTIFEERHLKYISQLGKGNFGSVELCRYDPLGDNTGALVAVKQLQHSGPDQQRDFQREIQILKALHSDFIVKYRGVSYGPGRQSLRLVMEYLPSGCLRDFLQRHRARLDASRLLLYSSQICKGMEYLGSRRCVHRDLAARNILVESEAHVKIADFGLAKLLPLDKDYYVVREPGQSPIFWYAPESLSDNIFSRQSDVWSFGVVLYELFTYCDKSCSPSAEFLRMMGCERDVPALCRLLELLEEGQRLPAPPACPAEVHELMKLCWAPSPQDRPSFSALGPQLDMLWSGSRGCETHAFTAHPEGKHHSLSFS
Summary of the method: (§1)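 Specificity of the MK2-directed peptides is examined by measuring activity of 266 human kinases, every determination performed in duplicate.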

Snk(h) = Snk(h) (Homo sapiens, UniProt Q9NYY3); test: Kinase Profiling Assay; assay type: biochemical; settings: 100 μM peptide
Snk(h), sequence (Q9NYY3 whole entry): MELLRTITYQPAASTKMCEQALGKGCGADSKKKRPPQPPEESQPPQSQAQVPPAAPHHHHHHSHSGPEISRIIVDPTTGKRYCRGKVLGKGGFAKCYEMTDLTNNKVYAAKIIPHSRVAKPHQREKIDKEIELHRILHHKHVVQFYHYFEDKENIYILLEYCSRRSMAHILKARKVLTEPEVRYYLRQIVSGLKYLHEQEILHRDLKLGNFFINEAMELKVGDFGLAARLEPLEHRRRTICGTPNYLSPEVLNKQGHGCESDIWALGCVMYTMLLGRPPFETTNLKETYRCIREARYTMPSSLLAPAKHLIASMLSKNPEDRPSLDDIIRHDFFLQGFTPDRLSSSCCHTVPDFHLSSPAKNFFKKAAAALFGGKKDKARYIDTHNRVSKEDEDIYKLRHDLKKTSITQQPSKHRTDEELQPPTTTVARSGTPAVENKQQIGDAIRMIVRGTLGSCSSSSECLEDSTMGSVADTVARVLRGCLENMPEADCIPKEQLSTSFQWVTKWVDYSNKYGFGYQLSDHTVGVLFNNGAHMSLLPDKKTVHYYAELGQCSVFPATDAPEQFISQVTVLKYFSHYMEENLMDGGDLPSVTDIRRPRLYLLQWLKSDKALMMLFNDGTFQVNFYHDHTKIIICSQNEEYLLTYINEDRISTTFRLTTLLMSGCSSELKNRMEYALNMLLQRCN
Summary of the method: as §1

cKit(V560G)(h) = cKit(V560G)(h) (Homo sapiens, UniProt P10721, V560G); test: Kinase Profiling Assay; assay type: biochemical; settings: 100 μM peptide
Summary of the method: as §1

[1] = tested on: bleomycin-induced lung fibrosis in C57BL/6 mice; test: Bleomycin mouse model of pulmonary fibrosis, prevention model (dosing day 7 to 21); assay type: in vivo; settings: for collagen levels in the lung (Masson's blue trichrome), dose response: 25, 50 or 75 μg/kg daily IP, day 7 to 21
Procedure: A mouse model of pulmonary fibrosis was generated by administering 0.025 U of bleomycin/PBS intratracheally to C57BL/6 mice. […] At 21 day post bleomycin delivery (for prevention model) or 28 post bleomycin delivery (for treatment model), groups of mice were sacrificed with a sodium pentobarbital injection (120 mg/kg) and the chest cavity was opened. The right mainstem bronchus was ligated and the right lung was removed. The trachea was cannulated and the left lung was perfused with 4% formaldehyde at 21 cm H2O pressure. The tissue blocks then were embedded in paraffin, and […] sections were prepared for staining. Sections from each animal were stained with hematoxylin and eosin (H&E) to visualize cells or with Masson's Trichrome staining to highlight collagen deposition. […] Stained sections were mounted onto a labeled glass slide with organic mounting medium.
Briefly, fibrotic loci in the lungs of the mice were induced by delivering intratracheally about 0.025 U of bleomycin (dissolved in PBS) to C57BL/6 mice. […] Briefly, mice were sacrificed with a sodium pentobarbital injection (120 mg/kg) and the chest cavity was opened. The right mainstem bronchus was ligated and the right lung was removed. The trachea was cannulated and the left lung was perfused with 4% formaldehyde at 21 cm H2O pressure. The tissue blocks then were embedded in paraffin, and […] sections were prepared, and stained with hematoxylin and eosin (H&E; for pathological examination) or Masson's Trichrome (for collagen staining)
Next, total collagen levels in the lungs of the bleomycin-injured mice (FIG. 12) were analyzed quantitatively by computing a constant conversion factor (7.5) for collagen from hydroxyproline concentrations (Neuman R. and Logan M, J Biol Chem., 186(2):549-56, 1950, incorporated by reference).
Next, the effect of increasing doses of MK2 peptide inhibitors on collagen deposition was examined in vivo using the bleomycin mouse model of idiopathic pulmonary fibrosis (prevention model). Briefly, C57-BL/6 mice were subjected to bleomycin injury at day 0.

[2] = tested on: Porcine airway smooth muscle (PASM); test: ISO-induced relaxation of airway smooth muscle rings in muscle bath; settings: 100 μM for 1 hr; CCh-contracted rings; n=3
From the text: Porcine airway smooth muscle (PASM) rings were isolated from second generation bronchi, cartilage was peeled off and then hung in a muscle bath and equilibrated in Kreb's buffer for 3 hrs. […] ISO is a β-adrenergic agonist that relaxes almost all varieties of […] when the tone is high, but its action is most pronounced on bronchial and gastrointestinal smooth muscle. It prevents or relieves bronchoconstrution. Its effect in asthma maybe due in part to an additional action to inhibit antigen-induced release of histamine and other mediators of inflammation; this action is shared by β2-receptor-selective stimulants. Goodman & Gilman's The Pharmacological Basis of Therapeutics, Joel G. Hardman and Lee E. Limberd, Eds., 10th Ed. […] Force was normalized to the weight and length of the tissue and converted to stress and relaxation induced was calculated.

MK2 phosphorylation = MK2 phosphorylation in intact airway smooth muscle, immunoblot; set-up: species or system human; settings: 200 μM pre-treatment for 30 min
Procedure: (A) Representative tracings of force generation. Cumulative contractile responses to CCH (B) and % relaxation to ISO doses (C). n=4; p<0.05. Inset is an immunoblot showing MK2 phosphorylation level. HASM was hung in the muscle bath and frozen. MK2 phosphorylation was determined by SDS PAGE and immunoblotting.

[3] = nebulization or intraperitoneal, daily day 7 to 21, lung at day 21

Row | Compound | JAK3(h) % activity (JAK3(h)) [%] | Snk(h) % activity (Snk(h)) [%] | cKit(V560G)(h) % activity (cKit(V560G)(h)) [%] | collagen levels in the lung (Masson's blue trichrome), dose response [1] | collagen accumulation (Masson's Trichrome staining) [1, 3] | fibrotic loci formation (H&E staining) [1, 3] | total collagen levels in the lungs (from hydroxyproline) ([1]; nebulized or systemic (IP), post-inflammatory/pre-fibrotic stage, vs bleomycin control) | enhancement of ISO induced relaxation [2] [%] | MK2 phosphorylation level (MK2 phosphorylation)
1 | HRRIKAWLKKIKALARQLGVAA (Mammalian) [MMI-0500] | 95 | 122 | 198 | – | – | – | – | – | –
2 | CC(C)C[C@H](NC(=O)[C@H](C)NC(=O)[C@H](CCCCN)NC(=O)[C@H](C)NC(=O)[C@H](CCCNC(=N)N)NC(=O)[C@H](C)NC(=O)[C@H](CCC(N)=O)NC(=O)[C@H](CCCNC(=N)N)NC(=O)[C@H](C)NC(=O)[C@H](C)NC(=O)[C@H](C)NC(=O)[C@H](CCCNC(=N)N)NC(=O)[C@H](C)NC(=O)[C@@H](N)Cc1ccc(O)cc1)C(=O)N[C@@H](C)C(=O)N[C@@H](CCCNC(=N)N)C(=O)N[C@@H](CCC(N)=O)C(=O)N[C@@H](CC(C)C)C(=O)NCC(=O)N[C@H](C(=O)N[C@@H](C)C(=O)N[C@@H](C)C(=O)O)C(C)C [MMI-0100] (H-YARAAARQARAKALARQLGVAA-OH; N-terminus and C-terminus assumed) | – | – | – | decrease in collagen levels | reduced collagen accumulation | significantly reduced development of fibrotic loci formation | significantly decreased collagen deposition | 13 | reduced MK2 phosphorylation
3 | YARAAARQARAKALNRQLGVA (Mammalian) [MMI-0200] | – | – | – | did not reduce, but rather increased the collagen deposition | – | – | – | – | –
4 | KAFAKLAARLYRKALARQLGVAA [MMI-0400] | 122 | 131 | 124 | – | – | – | – | – | –
